In ChEMBL document CHEMBL1201862, “PubChem BioAssay data set” (2004):
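Test compounds were applied to cells in 96-well plates for 48 hours at 5 doses. GI50: concentration for 50% inhibition of growth.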 The source made the active and inactive calls. No stated cut-off is given here; in the data, active = GI50 up to about 1.1 µM and inactive = higher.

Columns and labels:
Assay in all cases: NCI-60 cell line screen, 48 h
[1] = system: SNB-78
[2] = system: A549
[3] = system: SK-MEL-5
[4] = system: HOP-92
[5] = system: SF-295
[6] = system: 786-0
[7] = system: SW-620
[8] = system: DMS-114
[9] = system: OVCAR-8
[10] = system: TK-10
[11] = system: DMS-273
[12] = system: SK-OV-3
[13] = system: EKVX
[14] = system: HCC 2998
[15] = system: HOP-18
[16] = system: HCT-116
[17] = system: HCT-15
[18] = system: IGROV-1
[19] = system: M14
[20] = system: SN12C
[21] = system: UACC-62
[22] = system: RXF 631
[23] = system: ACHN
[24] = system: A498
[25] = system: SK-MEL-28
[26] = system: KM12
[27] = system: HT-29
[28] = system: Malme-3M
[29] = system: CCRF-CEM
[30] = system: UO-31
[31] = system: LOX IMVI
[32] = system: U-251
[33] = system: CAKI-1
[34] = system: K562
[35] = system: NCI-H522
[36] = system: COLO 205
[37] = system: M19-MEL
[38] = system: NCI-H460
[39] = system: UACC-257
[40] = system: RXF 393
[41] = system: NCI-H23
[42] = system: LXFL 529
[43] = system: MOLT-4
[44] = system: OVCAR-3
[45] = system: SNB-75
[46] = system: DLD-1
[47] = system: NCI-H226
[48] = system: RPMI-8226
[49] = system: HOP-62
[50] = system: KM-20L2
[51] = system: SNB-19
[52] = system: XF498
[53] = system: SF-539
[54] = system: SR
[55] = system: HL-60
[56] = system: OVCAR-4
[57] = system: SF-268
[58] = system: OVCAR-5

Compound: CC1=CCCC2C(C=O)(C1)CC(C)C2(CO)CC/C(=C/CO)CO (stereo not drawn)
- GI50 [1]: > 100 µM (inactive)
- GI50 [2]: > 100 µM (inactive)
- GI50 [3]: > 100 µM (inactive)
- GI50 [4]: 30 µM (inactive)
- GI50 [5]: > 100 µM (inactive)
- GI50 [6]: > 100 µM (inactive)
- GI50 [7]: > 100 µM (inactive)
- GI50 [8]: > 100 µM (inactive)
- GI50 [9]: > 100 µM (inactive)
- GI50 [10]: > 100 µM (inactive)
- GI50 [11]: > 100 µM (inactive)
- GI50 [12]: > 100 µM (inactive)
- GI50 [13]: > 100 µM (inactive)
- GI50 [14]: > 100 µM (inactive)
- GI50 [15]: > 100 µM (inactive)
- GI50 [16]: 69.5 µM (inactive)
- GI50 [17]: > 100 µM
- GI50 [18]: > 100 µM (inactive)
- GI50 [19]: > 100 µM (inactive)
- GI50 [20]: > 100 µM (inactive)
- GI50 [21]: > 100 µM (inactive)
- GI50 [22]: > 100 µM (inactive)
- GI50 [23]: > 100 µM (inactive)
- GI50 [24]: > 100 µM (inactive)
- GI50 [25]: > 100 µM (inactive)
- GI50 [26]: > 100 µM (inactive)
- GI50 [27]: > 100 µM (inactive)
- GI50 [28]: > 100 µM (inactive)
- GI50 [29]: 71.9 µM (inactive)
- GI50 [30]: 24.9 µM (inactive)
- GI50 [31]: > 100 µM (inactive)
- GI50 [32]: > 100 µM (inactive)
- GI50 [33]: 57.3 µM (inactive)
- GI50 [34]: 89.5 µM (inactive)
- GI50 [35]: 38.4 µM (inactive)
- GI50 [36]: > 100 µM (inactive)
- GI50 [37]: > 100 µM (inactive)
- GI50 [38]: > 100 µM (inactive)
- GI50 [39]: 98.9 µM (inactive)
- GI50 [40]: > 100 µM (inactive)
- GI50 [41]: 90.6 µM (inactive)
- GI50 [42]: 79.3 µM (inactive)
- GI50 [43]: 44.7 µM (inactive)
- GI50 [44]: > 100 µM (inactive)
- GI50 [45]: 37.8 µM (inactive)
- GI50 [46]: > 100 µM (inactive)
- GI50 [47]: 38.5 µM (inactive)
- GI50 [48]: 67.3 µM (inactive)

Compound: Cc1c(C(=O)/C=C/c2ccccc2)[n+]([O-])c2ccccc2[n+]1[O-]
- GI50 [1]: 34.3 µM (inactive)
- GI50 [49]: 18.1 µM (inactive)
- GI50 [2]: 18.4 µM (inactive)
- GI50 [50]: 18 µM (inactive)
- GI50 [4]: 11.6 µM (inactive)
- GI50 [5]: 16.4 µM (inactive)
- GI50 [6]: 17.2 µM (inactive)
- GI50 [51]: 15.7 µM (inactive)
- GI50 [7]: 14.8 µM (inactive)
- GI50 [8]: 10.2 µM (inactive)
- GI50 [9]: 15 µM (inactive)
- GI50 [10]: 26.2 µM (inactive)
- GI50 [11]: 15.8 µM (inactive)
- GI50 [12]: 20.1 µM (inactive)
- GI50 [13]: 14.9 µM (inactive)
- GI50 [52]: 11.9 µM (inactive)
- GI50 [14]: 16.6 µM (inactive)
- GI50 [15]: 18.7 µM (inactive)
- GI50 [53]: 15.5 µM (inactive)
- GI50 [16]: 15.8 µM (inactive)
- GI50 [18]: 17.5 µM (inactive)
- GI50 [19]: 15.3 µM (inactive)
- GI50 [54]: 23.2 µM (inactive)
- GI50 [20]: 13.8 µM (inactive)
- GI50 [21]: 15.1 µM (inactive)
- GI50 [23]: 17.7 µM (inactive)
- GI50 [24]: 15.8 µM (inactive)
- GI50 [25]: 16.7 µM (inactive)
- GI50 [55]: 13.9 µM (inactive)
- GI50 [26]: 15.9 µM (inactive)
- GI50 [27]: 19.3 µM (inactive)
- GI50 [28]: 17.7 µM (inactive)
- GI50 [29]: 22.2 µM (inactive)
- GI50 [30]: 20 µM (inactive)
- GI50 [31]: 14.5 µM (inactive)
- GI50 [32]: 15.3 µM (inactive)
- GI50 [33]: 17.5 µM (inactive)
- GI50 [34]: 15.6 µM (inactive)
- GI50 [35]: 6.62 µM (inactive)
- GI50 [56]: 15 µM (inactive)
- GI50 [36]: 16.3 µM (inactive)
- GI50 [37]: 15.7 µM (inactive)
- GI50 [38]: 17.6 µM (inactive)
- GI50 [39]: 16.6 µM (inactive)
- GI50 [57]: 19.7 µM (inactive)
- GI50 [40]: 2.07 µM (inactive)
- GI50 [41]: 15.7 µM (inactive)
- GI50 [42]: 13 µM (inactive)
- GI50 [43]: 21.3 µM (inactive)
- GI50 [44]: 15.1 µM (inactive)
- GI50 [45]: 23.6 µM (inactive)
- GI50 [46]: 14.2 µM (inactive)
- GI50 [58]: 16.7 µM (inactive)
- GI50 [47]: 20.8 µM (inactive)
- GI50 [48]: 17.8 µM (inactive)
